The numbers were not newly measured in patent US20050002974A1, “Itch-relieving cosmetic or dermatological preparation” (Beiersdorf AG, priority 2002, published 2005), which cites them from elsewhere.

The conditions of data set [1]: rubbed into the skin.
The conditions of data set [2]: used in aqueous solutions.

`CC1CCC(C(C)C)C(O)C1` (centres unmarked) [menthol, Menthol]: the “feel on the skin” value in data set [1] is reported as “pleasant cooling feel”.

With “polyethylene glycol (9) monododecyl ether [polidocanol]”, in data set [2], the local anesthetic properties result is “strong local anesthetic properties”.
